Converted amounts (≈) assume the structure as drawn. Like-named read-outs stand apart in the source and are kept apart here.
Key:
S. aureus = assay: MIC assay, S. aureus; type: cell-based, Staphylococcus aureus
S. pneumo. = assay: MIC assay, S. pneumo.; type: cell-based, Streptococcus pneumoniae
E. faecalis = assay: MIC assay, E. faecalis; type: cell-based, Enterococcus faecalis
H. flu = type: cell-based, H. influenza
E coli = assay: MIC assay, E coli; type: cell-based

Row | SMILES | MIC (μg/mL) S. aureus (S. aureus) | MIC (μg/mL) S. pneumo. (S. pneumo.) | MIC (μg/mL) E. faecalis (E. faecalis) | MIC (μg/mL) H. flu (H. flu; H. flu) | MIC (μg/mL) E coli (E coli) | MIC (μg/mL) H. flu (H. flu)
1 | CCCC(=O)NC1CCN(c2cc(O)c3nc4c5c6c7c(C)c(O)c5c(=O)c(c-4oc3c2)NC(=O)/C(C)=C\C=C\[C@H](C)[C@H](O)[C@@H](C)[C@@H](O)[C@@H](C)[C@H](OC(C)=O)[C@H](C)[C@@H](OC)/C=C/O[C@@](C)(O7)C6=O)CC1 [Compound 24, 3′-hydroxy-5′-[4-butanamide-1-piperidinyl]benzoxazinorifamycin] | 0.015 µg/mL (≈ 0.0155 µM) | 0.001 µg/mL (≈ 0.00103 µM) | 2 µg/mL (≈ 2.06 µM) | 2 µg/mL (≈ 2.06 µM) | >8 µg/mL | 
2 | COC1C=COC2(C)Oc3c(C)c(O)c4c(=O)c(c5sc6cc(N7CC(C)NC(C)C7)ccc6nc-5c4c3C2=O)NC(=O)C(C)=CC=CC(C)C(O)C(C)C(O)C(C)C(OC(C)=O)C1C [Compound 64, 5′-[(3R,5S)-3,5-dimethyl-1-piperazinyl]benzthiazinorifamycin] | 0.004 µg/mL (≈ 0.00438 µM) | 0.00012 µg/mL (≈ 0.000131 µM) | 0.12 µg/mL (≈ 0.131 µM) | 0.25 µg/mL (≈ 0.274 µM) | 4 µg/mL (≈ 4.38 µM) | 
3 | COC1C=COC2(C)Oc3c(C)c(O)c4c(=O)c(c5oc6cc(N7CCN8CCCC8C7)cc(O)c6nc-5c4c3C2=O)NC(=O)C(C)=CC=CC(C)C(O)C(C)C(O)C(C)C(O)C1C (centres unmarked) [Compound 84] | 0.004 µg/mL (≈ 0.00453 µM) | 0.00025 µg/mL (≈ 0.000283 µM) | 0.03 µg/mL (≈ 0.034 µM) | 0.25 µg/mL (≈ 0.283 µM) | 8 µg/mL (≈ 9.06 µM) | 
4 | COC1C=COC2(C)Oc3c(C)c(O)c4c(=O)c(c5sc6cc(N7CCCN(C)CC7)ccc6nc-5c4c3C2=O)NC(=O)C(C)=CC=CC(C)C(O)C(C)C(O)C(C)C(O)C1C (centres unmarked) [Compound 122] | 0.002 µg/mL (≈ 0.0023 µM) | 0.00025 µg/mL (≈ 0.000287 µM) | 0.25 µg/mL (≈ 0.287 µM) | 0.12 µg/mL (≈ 0.138 µM) | 2 µg/mL (≈ 2.3 µM) | 
5 | COC1C=COC2(C)Oc3c(C)c(O)c4c(=O)c(c5oc6cc(N7CC8C(C7)C8N(C)C)cc(O)c6nc-5c4c3C2=O)NC(=O)C(C)=CC=CC(C)C(O)C(C)C(O)C(C)C(O)C1C [Compound 54, 3′-hydroxy-5′-[6-N,N-dimethylamino-(1R,5S)-3-azabicyclo[3.1.0]hex-3-yl]benzoxazinorifamycin] | 0.008 µg/mL (≈ 0.00906 µM) | 0.0005 µg/mL (≈ 0.000566 µM) | 2 µg/mL (≈ 2.26 µM) | 0.25 µg/mL (≈ 0.283 µM) | >8 µg/mL | 
6 | COC1C=COC2(C)Oc3c(C)c(O)c4c(=O)c(c5sc6cc(N7CCOCC7)ccc6nc-5c4c3C2=O)NC(=O)C(C)=CC=CC(C)C(O)C(C)C(O)C(C)C(O)C1C (centres unmarked) [Compound 129] | 0.015 µg/mL (≈ 0.0178 µM) | 0.001 µg/mL (≈ 0.00118 µM) | 0.5 µg/mL (≈ 0.592 µM) |  | 4 µg/mL (≈ 4.74 µM) | 0.06 µg/mL (≈ 0.0711 µM)
7 | COC1C=COC2(C)Oc3c(C)c(O)c4c(=O)c(c5oc6cc(N7CCC(NC(=O)OC(C)(C)C)CC7)cc(O)c6nc-5c4c3C2=O)NC(=O)C(C)=CC=CC(C)C(O)C(C)C(O)C(C)C(O)C1C (centres unmarked) [Compound 52, 25-O-deacetyl-3′-hydroxy-5′-[4-(2,2-dimethylethyl)carbamyl-1-piperidinyl]benzoxazinorifamycin] | 0.015 µg/mL (≈ 0.0157 µM) | 0.00025 µg/mL (≈ 0.000261 µM) | 4 µg/mL (≈ 4.18 µM) | 0.12 µg/mL (≈ 0.125 µM) | >8 µg/mL | 
8 | COCCN1CCN(c2cc(O)c3nc4c5c6c7c(C)c(O)c5c(=O)c(c-4oc3c2)NC(=O)C(C)=CC=CC(C)C(O)C(C)C(O)C(C)C(O)C(C)C(OC)C=COC(C)(O7)C6=O)CC1 (centres unmarked) [Compound 89] | 0.004 µg/mL (≈ 0.00444 µM) | 0.00025 µg/mL (≈ 0.000277 µM) | 0.12 µg/mL (≈ 0.133 µM) | 0.25 µg/mL (≈ 0.277 µM) | 8 µg/mL (≈ 8.88 µM) | 
9 | CO[C@H]1/C=C/O[C@@]2(C)Oc3c(C)c(O)c4c(=O)c(c5oc6cc(N7CCC(C(N)=O)CC7)cc(O)c6nc-5c4c3C2=O)NC(=O)/C(C)=C\C=C\[C@H](C)[C@H](O)[C@@H](C)[C@@H](O)[C@@H](C)[C@H](O)[C@@H]1C [Compound 109] | 0.03 µg/mL (≈ 0.0339 µM) | 0.002 µg/mL (≈ 0.00226 µM) | 1 µg/mL (≈ 1.13 µM) | 0.25 µg/mL (≈ 0.282 µM) | >8 µg/mL | 
10 | COC1C=COC2(C)Oc3c(C)c(O)c4c(=O)c(c5oc6cc(N7CCC(NC(C)=O)CC7)cc(O)c6nc-5c4c3C2=O)NC(=O)C(C)=CC=CC(C)C(O)C(C)C(O)C(C)C(O)C1C (centres unmarked) [Compound 43, 25-O-deacetyl-3′-hydroxy-5′-[4-acetamide-1-piperidinyl]benzoxazinorifamycin] | 0.03 µg/mL (≈ 0.0334 µM) | 0.002 µg/mL (≈ 0.00222 µM) | 2 µg/mL (≈ 2.22 µM) | 0.5 µg/mL (≈ 0.556 µM) | >8 µg/mL | 
11 | COC1C=COC2(C)Oc3c(C)c(O)c4c(=O)c(c5oc6cc(N7CCN(C(=O)C8CC8)CC7)cc(O)c6nc-5c4c3C2=O)NC(=O)C(C)=CC=CC(C)C(O)C(C)C(O)C(C)C(O)C1C (centres unmarked) [Compound 107] | 0.015 µg/mL (≈ 0.0165 µM) | 0.004 µg/mL (≈ 0.00439 µM) | 0.5 µg/mL (≈ 0.549 µM) | 0.25 µg/mL (≈ 0.274 µM) | 8 µg/mL (≈ 8.78 µM) | 
12 | COC1C=COC2(C)Oc3c(C)c(O)c4c(=O)c(c5oc6cc(N7CCC(NC(C)=O)CC7)cc(O)c6nc-5c4c3C2=O)NC(=O)C(C)=CC=CC(C)C(O)C(C)C(O)C(C)C(OC(C)=O)C1C (centres unmarked) [Compound 44] | 0.06 µg/mL (≈ 0.0638 µM) | 0.008 µg/mL (≈ 0.0085 µM) | 2 µg/mL (≈ 2.13 µM) | 0.25 µg/mL (≈ 0.266 µM) | >8 µg/mL | 
13 | COCCOC(=O)NC1CCN(c2cc(O)c3nc4c5c6c7c(C)c(O)c5c(=O)c(c-4oc3c2)NC(=O)C(C)=CC=CC(C)C(O)C(C)C(O)C(C)C(O)C(C)C(OC)C=COC(C)(O7)C6=O)CC1 (centres unmarked) [Compound 63, 25-O-deacetyl-3′-hydroxy-5′-[4-methoxyethylcarbamyl-1-piperidinyl]benzoxazinorifamycin] | 0.008 µg/mL (≈ 0.00834 µM) | 0.002 µg/mL (≈ 0.00209 µM) | 1 µg/mL (≈ 1.04 µM) | 0.25 µg/mL (≈ 0.261 µM) | 8 µg/mL (≈ 8.34 µM) | 

Reference: patent US7271165B2, “Rifamycin analogs and uses thereof” (priority 2003, dated 2007)
